Data on four compounds can be found in patent publication US9340590B2 (priority 2011, dated 2016).

The test system of series [1] is veratridine-induced spontaneous nociceptive behaviors in male CD-1 mice. The note with it: mouse, in vivo.
Series [2] has as its system NaV1.7. Particulars: read-out: EC50, impairs fast inactivation; cited from earlier work.
The test system of series [3] is mechanical hyperalgesia. The note with it: rat, in vivo; cited from earlier work.
The test system of series [4] is C-fiber compound action potential. The note with it: cited from earlier work.
For series [5] the following is noted: rat, in vivo, 0.1 mg/kg; cited from earlier work.
Series [6] deals with hNav1.7 (Homo sapiens, UniProt Q15858). It counts as cell-based.
Series [7] deals with hNav1.3 (Homo sapiens, UniProt Q9NY46). Briefly: cell-based. It counts as cell-based. Particulars: read-out: Nav1.3 Use IC50.
Series [8] has as its target hNav1.4 (Homo sapiens, UniProt P35499). Briefly: cell-based. The note with it: read-out: Nav1.4 Use IC50.
Series [9] concerns the target T1, hNav1.5 (Homo sapiens, UniProt Q14524). The format is cell-based.
In series [10] the target is T1, hNav1.5. As to the kind of experiment: cell-based. Particulars: read-out: Nav1.5 Use IC50.

Read-outs that look alike come from different tables or passages of the source.

T1 sequence (Q14524 whole entry, looked up): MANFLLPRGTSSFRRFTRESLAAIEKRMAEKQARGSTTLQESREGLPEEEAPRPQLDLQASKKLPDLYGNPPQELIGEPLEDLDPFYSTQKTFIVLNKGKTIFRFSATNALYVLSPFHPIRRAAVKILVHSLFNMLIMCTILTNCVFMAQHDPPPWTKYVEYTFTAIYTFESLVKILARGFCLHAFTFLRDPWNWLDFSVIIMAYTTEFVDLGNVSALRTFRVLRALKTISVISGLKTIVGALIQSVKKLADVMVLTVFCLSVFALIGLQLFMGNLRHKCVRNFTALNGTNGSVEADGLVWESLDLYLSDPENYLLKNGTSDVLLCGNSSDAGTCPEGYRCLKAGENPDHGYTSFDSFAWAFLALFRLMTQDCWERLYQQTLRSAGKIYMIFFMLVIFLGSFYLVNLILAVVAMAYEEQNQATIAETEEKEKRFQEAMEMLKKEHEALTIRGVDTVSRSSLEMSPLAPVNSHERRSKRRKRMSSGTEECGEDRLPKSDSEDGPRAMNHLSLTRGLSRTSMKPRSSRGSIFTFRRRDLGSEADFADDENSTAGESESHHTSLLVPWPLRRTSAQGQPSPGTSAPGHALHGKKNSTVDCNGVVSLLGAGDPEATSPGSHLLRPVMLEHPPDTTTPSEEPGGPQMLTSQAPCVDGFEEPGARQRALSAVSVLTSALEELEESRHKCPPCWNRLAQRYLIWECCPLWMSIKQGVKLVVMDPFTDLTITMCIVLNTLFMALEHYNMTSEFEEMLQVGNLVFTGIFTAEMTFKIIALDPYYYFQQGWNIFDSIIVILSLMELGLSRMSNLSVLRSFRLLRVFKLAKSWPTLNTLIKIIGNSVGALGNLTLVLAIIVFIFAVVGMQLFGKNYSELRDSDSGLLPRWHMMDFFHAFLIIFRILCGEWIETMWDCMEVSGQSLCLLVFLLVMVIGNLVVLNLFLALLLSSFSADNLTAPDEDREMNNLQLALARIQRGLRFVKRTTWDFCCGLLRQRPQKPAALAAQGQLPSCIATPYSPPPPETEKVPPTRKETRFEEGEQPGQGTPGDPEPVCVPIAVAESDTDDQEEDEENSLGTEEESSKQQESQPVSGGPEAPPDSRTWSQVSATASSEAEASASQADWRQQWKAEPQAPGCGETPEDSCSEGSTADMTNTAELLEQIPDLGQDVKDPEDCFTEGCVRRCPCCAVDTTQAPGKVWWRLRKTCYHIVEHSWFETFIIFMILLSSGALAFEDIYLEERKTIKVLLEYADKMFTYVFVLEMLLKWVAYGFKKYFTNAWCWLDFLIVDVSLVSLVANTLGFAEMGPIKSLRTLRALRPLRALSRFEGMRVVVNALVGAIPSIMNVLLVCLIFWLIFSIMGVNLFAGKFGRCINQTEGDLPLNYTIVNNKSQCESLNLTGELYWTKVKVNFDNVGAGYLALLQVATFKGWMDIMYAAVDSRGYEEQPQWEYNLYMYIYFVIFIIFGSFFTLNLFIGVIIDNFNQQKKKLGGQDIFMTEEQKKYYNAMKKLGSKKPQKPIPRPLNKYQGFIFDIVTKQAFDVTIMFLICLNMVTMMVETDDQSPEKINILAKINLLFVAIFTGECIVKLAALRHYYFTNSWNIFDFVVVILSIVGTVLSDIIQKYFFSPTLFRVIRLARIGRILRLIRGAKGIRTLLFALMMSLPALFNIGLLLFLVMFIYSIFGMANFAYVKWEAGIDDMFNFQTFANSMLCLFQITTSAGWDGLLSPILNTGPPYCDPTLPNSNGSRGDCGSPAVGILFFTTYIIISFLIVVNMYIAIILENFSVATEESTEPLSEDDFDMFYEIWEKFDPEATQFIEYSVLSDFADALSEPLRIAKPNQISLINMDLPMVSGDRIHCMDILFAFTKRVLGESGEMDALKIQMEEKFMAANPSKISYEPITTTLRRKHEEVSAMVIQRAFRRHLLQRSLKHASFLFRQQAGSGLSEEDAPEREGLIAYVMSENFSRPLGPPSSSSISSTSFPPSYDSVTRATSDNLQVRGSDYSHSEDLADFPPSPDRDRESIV
hNav1.3, sequence (Q9NY46 whole entry, looked up): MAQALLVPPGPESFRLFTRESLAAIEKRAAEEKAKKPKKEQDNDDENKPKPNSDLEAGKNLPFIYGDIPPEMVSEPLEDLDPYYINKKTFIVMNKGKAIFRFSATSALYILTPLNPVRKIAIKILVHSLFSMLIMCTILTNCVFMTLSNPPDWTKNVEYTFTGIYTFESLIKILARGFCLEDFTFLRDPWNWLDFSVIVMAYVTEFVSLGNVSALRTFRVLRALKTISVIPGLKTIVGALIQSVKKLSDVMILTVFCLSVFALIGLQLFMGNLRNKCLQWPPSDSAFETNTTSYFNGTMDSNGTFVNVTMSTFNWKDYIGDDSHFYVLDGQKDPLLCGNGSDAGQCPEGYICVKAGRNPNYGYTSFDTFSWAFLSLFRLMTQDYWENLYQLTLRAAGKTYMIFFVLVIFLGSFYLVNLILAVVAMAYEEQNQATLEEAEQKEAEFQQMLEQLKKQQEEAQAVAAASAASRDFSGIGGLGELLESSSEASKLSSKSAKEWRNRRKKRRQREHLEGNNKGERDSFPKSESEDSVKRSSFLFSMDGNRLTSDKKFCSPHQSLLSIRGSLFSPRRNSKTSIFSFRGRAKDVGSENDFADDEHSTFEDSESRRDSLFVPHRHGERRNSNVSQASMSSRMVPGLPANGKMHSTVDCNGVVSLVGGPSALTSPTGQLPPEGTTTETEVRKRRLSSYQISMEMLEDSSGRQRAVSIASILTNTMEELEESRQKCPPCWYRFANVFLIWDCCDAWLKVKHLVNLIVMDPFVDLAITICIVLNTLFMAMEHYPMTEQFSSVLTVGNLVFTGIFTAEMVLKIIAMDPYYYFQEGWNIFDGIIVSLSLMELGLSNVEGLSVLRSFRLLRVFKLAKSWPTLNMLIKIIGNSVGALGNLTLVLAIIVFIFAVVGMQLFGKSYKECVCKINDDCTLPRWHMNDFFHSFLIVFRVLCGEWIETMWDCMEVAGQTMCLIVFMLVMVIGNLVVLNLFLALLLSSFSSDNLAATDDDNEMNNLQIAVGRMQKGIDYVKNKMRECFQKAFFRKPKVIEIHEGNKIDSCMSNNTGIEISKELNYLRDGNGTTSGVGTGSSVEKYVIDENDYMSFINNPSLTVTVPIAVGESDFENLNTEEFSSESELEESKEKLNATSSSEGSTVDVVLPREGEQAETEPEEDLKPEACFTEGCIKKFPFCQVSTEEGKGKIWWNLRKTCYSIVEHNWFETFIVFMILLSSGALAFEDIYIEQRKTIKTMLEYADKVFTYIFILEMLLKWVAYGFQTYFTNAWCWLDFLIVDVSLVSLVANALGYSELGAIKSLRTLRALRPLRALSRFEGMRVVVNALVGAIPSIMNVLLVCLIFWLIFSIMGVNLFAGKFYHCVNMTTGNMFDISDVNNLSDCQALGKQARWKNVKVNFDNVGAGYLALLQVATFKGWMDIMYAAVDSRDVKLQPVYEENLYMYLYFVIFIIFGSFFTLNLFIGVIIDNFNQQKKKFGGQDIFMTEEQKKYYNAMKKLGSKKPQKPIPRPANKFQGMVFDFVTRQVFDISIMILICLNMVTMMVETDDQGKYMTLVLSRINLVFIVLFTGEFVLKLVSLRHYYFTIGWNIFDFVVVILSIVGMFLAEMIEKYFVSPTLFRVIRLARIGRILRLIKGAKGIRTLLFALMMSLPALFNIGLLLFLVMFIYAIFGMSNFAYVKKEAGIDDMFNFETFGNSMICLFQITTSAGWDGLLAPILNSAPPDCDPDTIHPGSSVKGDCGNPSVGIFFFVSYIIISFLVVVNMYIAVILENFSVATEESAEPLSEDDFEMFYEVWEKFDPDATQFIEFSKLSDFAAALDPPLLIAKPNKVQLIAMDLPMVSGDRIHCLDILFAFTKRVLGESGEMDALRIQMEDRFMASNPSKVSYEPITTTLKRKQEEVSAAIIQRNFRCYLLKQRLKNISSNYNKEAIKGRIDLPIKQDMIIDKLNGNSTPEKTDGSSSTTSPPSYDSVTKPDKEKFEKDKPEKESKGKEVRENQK

For the compound `Cc1cccc(C)c1OCC(C)N` (stereo not shown) [mexiletine, reference compound], the “veratridine-induced paw lifting behavior” value in series [1] is listed as “significantly reversed”.

“GVRDAYIADDKNCVYTCASNGYCNTECTKNGAESGYCQWIGRYGNACWCIKLPDEVPIRIPGKCR [OD1]”: the EC50 in series [2] is 4.5 nM.

Consider “YCQKWMWTCDSERKCCEGMVCRLWCKKKLW [ProTx-II, YCQKWMWTCDSERKCCEGMVCRLWCKKKLW]”, for which the “efficacy in a mechanical hyperalgesia study” value in series [3] is given as “not efficacious”. Further, in series [4], the “C-fiber compound action potential” value is listed as “completely blocked” and the action potential propagation result is on record as “little effect”. Besides, the tolerability in rats result in [5] is on record as “lethal”.

“[Phe6,Atz(2 kDa EtO-PEG*-{[Phe6,Atz13*]GpTx-1(1-34)}) 13]GpTx-1(1-34) [Homodimeric Conjugate 1]”: the “inhibition of the Nav1.7 current” value in series [6] is “complete inhibition”. The IC50 in series [7] was 8 nM; in series [8], 254 nM; in [9] (read-out: IC50 against hNav1.5 sodium channels), 75.5 nM; in series [9] (read-out: IC50 against hNav1.5 sodium channels, partially inactivated) it was 57 nM; in [10], 1430 nM. In addition, the “inhibition of the Nav1.5 current” value in series [9] was “complete inhibition”.

A word on the EC50: it is the concentration that produces a half-maximal response. The term IC50 denotes the midpoint of a concentration-inhibition curve.
